Experiments:
BtGH84 [1] = target: T1, BtGH84 (Bacteroides thetaiotaomicron, UniProt Q89ZI2); test: Differential scanning fluorimetry (DSF); type: binding; conditions: melting temperature of BtGH84; PUGNAc 200 μM
T1 construct: made in house
Experimental: constant (Ka) were obtained from this fitting, and were used to calculate the Gibbs free energy (ΔG) and […]
Crystallisation and structure determination
BtGH84 crystals were grown using the sitting-drop vapour diffusion method. 1 μl of 12 mg/ml BtGH84 was mixed with 1 μl of reservoir solution (0.1 M imidazole pH 8.0, 10% PEG8000 (w/v), 3% trimethylamine N-oxide dehydrate, 12% ethylene glycol) and the crystals were allowed to grow at room temperature for at least 2 days. Crystal soaking was performed by gradually adding well solution containing 10 mM PUGNac and 50 mM activator 2, and 10% DMSO. Crystals were picked up with a nylon fibre loop (Hampton Research) and plunged into liquid nitrogen. Data were collected at Diamond beamline I04 using a Pilatus 6M-F detector (Dectris) at 100 K. An oscillation range of 0.1° degree was chosen and 180° were collected. Data were indexed, integrated and scaled using XDS.[5] Indexing was chosen to be consistent with previous collected data using Pointless[6] and a direct refinement of the model against the data was carried out. […] The quality of the final model was evaluated using the MolProbity-Server.[10] […]
DSF experiments were performed in 96-well polypropylene PCR plates (Agilent 401334) with a final well volume of 25 µl. […] Data was analysed with a combination of the Agilent MxPro software, MTSA,[11] and the DSF analysis spreadsheet in Excel.[12] […]

BtGH84 [2] = target: T1, BtGH84; test: Isothermal titration calorimetry (ITC); type: binding; conditions: 25°C
Experimental: (§1) AC50 measurements of fragment activators were performed using a fluorescent kinetic assay. Assays were carried out in a 96 well plate (Black Nunc F96 MicroWell Plates) at 25°C in a total volume of 100 μl per well, buffer (50 mM MES pH 6.5, 200 mM NaCl, 0.01% Tween-20, 1% DMSO) with 500 μM 4-methylumbelliferyl-β-D-GlcNAc (4MU-GlcNAc), as substrate and 50 nM BtGH84. Reactions were initiated by addition of 10 μl of substrate, to a final concentration of 500 μM, followed by 5 s of shaking. Fluorescent 4-methylumbelliferyl release was recorded continuously at 355 nm excitation and 460 nm emission for 20 s using a BMG PolarStar Optima plate reader. Rates were calculated using Sigmaplot as the slope of the curve of the collected data. Corrections were made to the detected gradients to adjust for the inner filter effect of 4MU-GlcNAc and convert the gradients into units of μmol min-1 according to a standard curve of 4MU. The initial slopes were fitted to four-parameter sigmoidal dose response curves using SigmaPlot and the AC50 values extracted. […]
Apparent KM and Vmax values were calculated from a Michalis-Menten curve fit to 8-10 point substrate titrations at a constant concentration of the activator. […]

BtGH84 [3] = target: T1, BtGH84; test: 4MU-GlcNAc cleavage assay (fluorescent kinetic enzyme activity assay); type: biochemical; conditions: in the presence of 4mM activator 2 versus absence
Experimental: as §1, with “4MU.” for “4MU. The initial slopes were fitted to four-parameter sigmoidal dose response curves using SigmaPlot and the AC50 values extracted.”
Kinetic experiments using 4MU-GlcNAc were carried out in an analogous manner except that reactions were initiated by a 10 μl injection of BtGH84, to a final concentration of 50 nM, in a well containing the substrate at the desired concentration. Values quoted throughout are mean and standard deviation of three independent […]
Apparent KM and Vmax values were calculated from a Michalis-Menten curve fit to 8-10 point substrate titrations at a constant concentration of the activator. The covariation experiments used the same range of substrate concentrations across an activator concentration range of 50 µM to 2 mM. The data obtained from these experiments was fit to the nonessential activator equation: […]
Here, [S] is the concentration of the […], [A] the concentration of the activator, α modifies KM, β modifies Vmax and KA is the half-max concentration of the activator. […]

T1 sequence (Q89ZI2 22-737, change not shown): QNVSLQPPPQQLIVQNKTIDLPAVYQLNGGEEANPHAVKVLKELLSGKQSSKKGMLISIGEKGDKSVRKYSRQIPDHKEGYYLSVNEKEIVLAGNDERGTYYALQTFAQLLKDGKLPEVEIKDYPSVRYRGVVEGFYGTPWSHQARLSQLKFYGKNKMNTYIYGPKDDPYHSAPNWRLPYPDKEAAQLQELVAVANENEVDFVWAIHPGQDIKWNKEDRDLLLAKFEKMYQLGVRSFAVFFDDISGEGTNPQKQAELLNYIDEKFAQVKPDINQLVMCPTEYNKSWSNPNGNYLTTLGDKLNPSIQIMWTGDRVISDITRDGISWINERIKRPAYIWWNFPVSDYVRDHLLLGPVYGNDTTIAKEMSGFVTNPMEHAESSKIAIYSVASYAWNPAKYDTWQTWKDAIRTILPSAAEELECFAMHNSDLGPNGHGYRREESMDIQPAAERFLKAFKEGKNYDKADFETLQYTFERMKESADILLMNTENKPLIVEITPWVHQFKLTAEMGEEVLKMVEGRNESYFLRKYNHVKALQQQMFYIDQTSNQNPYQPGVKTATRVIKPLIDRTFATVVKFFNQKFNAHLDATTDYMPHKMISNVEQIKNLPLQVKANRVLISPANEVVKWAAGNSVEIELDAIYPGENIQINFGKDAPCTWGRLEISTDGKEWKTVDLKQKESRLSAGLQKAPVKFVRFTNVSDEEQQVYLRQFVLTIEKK

CC(=O)N[C@H]1/C(=N/OC(=O)Nc2ccccc2)O[C@H](CO)[C@@H](O)[C@@H]1O [PUGNAc, O-(2-Acetamido-2-deoxy-D-glucopyranosylidene) amino-Z-N-phenylcarbamate]
increase of Tm (BtGH84 [1]): 3 °C
Kd (BtGH84 [2]; in the absence of 2): 3900 ± 120 nM
Kd (BtGH84 [2]; in the presence of 2 (10 mM)): 1100 ± 240 nM
IC50 (change) (BtGH84 [3]): reduced
